Source: patent US5681925A, “Trifunctional antithrombin and antiplatelet peptides” (priority 1995, dated 1997)
Like-named read-outs stand apart in the source and are kept apart here. Bridge positions count the residues as written; N and C are the ends. Square brackets hold non-standard residues; d marks the D form. Ends that are not written are not given here. Peptide text beside a SMILES is read from it. Cha = N[C@@H](CC1CCCCC1)C(=O)O; Nle = CCCC[C@H](N)C(=O)O

Experiments:
thrombin = experiment: Intravenous infusion in anesthetized dogs: thrombin time and aPTT
Experimental: (§1) Dogs are anesthetized with sodium pentobarbital (30 mg/kg, i.v.). The femoral artery and both femoral veins are isolated and cannulated for the recording of blood pressure (Gould P23ID, Gould Inc., Medical Products Division, Oxnard, Calif. 93030), blood sampling, and drug administration. Limb leads are placed subcutaneously for monitoring of lead II ECG. Blood pressure and ECG measurements are recorded (Gould 440 recorder, Gould Inc., Instrument Systems Division, Cleveland, Ohio 44114).
Activated partial thromboplastin time (aPTT) determinations are carried out using the reagents and methods of Dade Diagnostics, Inc. (Aguada, Puerto Rico 0602). Thrombin clotting times are determined by incubating 0.1 ml of rat plasma at 37° C. with 0.1 ml of 0.1M Tris buffer, pH 7.5 for 30 seconds. Coagulation is started with 0.1 ml of bovine thrombin (Sigma Diagnostics, St. Louis, Mo. 63178) solution (12 NIH units/ml). All clotting times are measured semiautomatically using a MLA-Electra 750 automatic coagualation timer, MLA, Inc. (Pleasantville, N.Y. 10570). The concentration required for doubling the clotting time (ID2) is calculated using simple linear regression. […] Estimation of t1/2 is made by linear regression of the response data over time.

[1] = dog, in vivo
Experimental: as §1
Template bleeding times are performed on the median surface of the left leg after the hair has been removed (Nair, Carter-Wallace, Inc., New York, N.Y. 10105) using a Surgicutt® bleeding time device (International Technidyne Corp., Edison, N.J. 08820). Template bleeding times are determined 60 and 30 min before administration of the drug, 15, 30, 60, 120, 180 and 240 min after drug administration.
Whole blood cell counts and analysis of the hemoglobin content are determined on a 140 μL blood sample anticoagulated with EDTA processed with a hematology analyzer (Technicon El, Miles Technicon, Tarrytown, N.Y. 10591). Samples were taken at 60 and 30 min before administration of the drug, 15, 30, 60, 120, 180 and 240 min after drug administration.

dog platelets = experiment: Intravenous infusion in anesthetized dogs: platelet aggregation; conditions: after 1 nmol/kg/min infusion is stopped
Experimental: as §1
(§2) Platelet aggregation in blood is performed in saline diluted (1:2) citrated blood using a whole blood aggregomenter (Chrono-log, model 540-VS). Aliquots of diluted blood are placed in plastic cuvettes and incubated at 37° C. for 15 min. Addition of ADP (2 μM) or thrombin (0.4 U/ml) is used to induce aggregation and the change in electrical impedance is registered on a strip chart recorder. Aggregation is measured in a total blood volume of 1.0 ml. Inhibitory responses are expressed as percent inhibition when compared to a control value. The concentration resulting in 50% inhibition of aggregation (IC50) is calculated by simple linear regression.

human platelets [2] = system: human platelets
Experimental: (§3) Human platelet-rich plasma (PRP) is prepared by centrifugation at 200 g-forces for 10 min. at room temperature. Platelet poor plasma (PPP) is prepared by centrifugation at 2,000 g-forces for 10 min. PRP is exposed only to plastic laboratory ware. All experiments are completed within 3 hours of blood collection. Platelet aggregation is measured photometrically using a dual channel aggregometer (Chrono-log Corp., Haverstown, Pa. 19083). One hundred percent light transmission is defined with autologus PPP. Percent maximal change in light transmission is determined from PRP following addition of ADP (1 μM) or thrombin. Thrombin (0.2-2.0 Units/ml)-induced platelet aggregation is concentration dependent and the half-maximal concentration is used for inhibition studies. Peptide 2 (SEQ ID NO: 2) is incubated with PRP (0.45 ml) for 30 seconds prior to the addition of ADP or thrombin. Aggregation is measured in a total volume of 0.5 ml. Inhibitory responses are expressed as percent inhibition when compared to a control value. The concentration resulting in 50% inhibition of aggregation. (IC50) is calculated by simple linear regression.
(§4) Human platelet-rich plasma (PRP) is prepared by centrifugation at 200 g-forces for 10 min. room temperature. Platelet poor plasma (PPP) is prepared by centrifugation at 2,000 g-forces for 10 min. PRP is exposed only to plastic laboratory ware. All experiments are completed within 3 hours of blood collection. Platelet aggregation is measured photometrically using a Chrono-log dual channel aggregometer (Chrono-log Corp., Haverstown, Pa. 19083). One hundred percent light transmission is defined with autologus PPP. Percent maximal change in light transmission is determined from PRP following addition of ADP (1 μM) or thrombin. Thrombin (0.2-2.0 Units/ml)-induced platelet aggregation is concentration dependent and the half-maximal concentration is used for inhibition studies. Peptide 1 (SEQ ID NO: 1) is incubated with PRP (0.45 ml) for 30 seconds prior to the addition of ADP or thrombin. Aggregation is measured in a total volume of 0.5 ml. Inhibitory responses are expressed as percent inhibition when compared to a control value. The concentration resulting in 50% inhibition of aggregation (IC50) is calculated by simple linear regression.

[3] = system: human whole blood platelets; conditions: read-out: IC50 whole blood platelet aggregation, ADP (0.5 μM) and thrombin (0.025 U/ml)
Experimental: as §2

[4] = system: rat whole blood platelets; conditions: read-out: IC50 whole blood platelet aggregation, ADP (0.5 μM) and thrombin (0.025 U/ml)
Experimental: as §2

human platelets [5] = system: human platelets; remark: listed apart in the source
Experimental: as §3, §4

human plasma = experiment: Activated partial thromboplastin time (aPTT) in human plasma; format: biochemical
Experimental: (§5) Activated partial thromboplastin time (aPTT) determinations are carried out using the reagents and methods of Dade Diagnostics, Inc. (Aguada, Puerto Rico 00602). Thrombin clotting times are determined by incubating 0.1 ml of rat plasma at 37° C. with 0.1 ml of 0.1M Tris buffer, pH 7.5 for 30 seconds. Coagulation is started with 0.1 ml of bovine thrombin (Sigma Diagnostics, St. Louis, Mo. 63178) solution (12 NIH units/ml). All clotting times are measured semiautomatically using a MLA-Electra 750 automatic coagualation timer, MLA, Inc. (Pleasantville, N.Y. 10570). The concentration required for doubling the clotting time (ID2) is calculated using simple linear regression.
(§6) Activated partial thromboplastin time (aPTT) determinations are carried out using the reagents and methods of Dade Diagnostics, Inc. (Aguada, Puerto Rico 0602). Thrombin clotting times are determined by incubating 0.1 ml of rat plasma at 37° C. with 0.1 ml of 0.1M Tris buffer, pH 7.5 for 30 seconds. Coagulation is started with 0.1 ml of bovine thrombin (Sigma Diagnostics, St. Louis, Mo. 63178) solution (12 NIH units/ml). All clotting times are measured semiautomatically using a MLA-Electra 750 automatic coagualation timer, MLA, Inc. (Pleasantville, N.Y. 10570). The concentration required for doubling the clotting time (ID2) is calculated using simple linear regression.

bovine thrombin = biological target: T1, bovine thrombin (Bos taurus, UniProt P00735); experiment: Thrombin clotting time in human plasma; format: biochemical
T1 construct: purchased Sigma Diagnostics, St. Louis, Mo
Experimental: as §5, §6

Question: Which “pharmacodynamic t1/2, restoration of thrombin activity” value (thrombin; after 1 hr infusion of 1 nmol/kg/min) does the source give for `CCCC[C@@H]1NC(=O)[C@H](CC(=O)O)NC(=O)CNC(=O)[C@H](CCCNC(=N)N)NC(=O)CNC(=O)[C@H](NC(=O)CNC(=O)[C@@H]2CCCN2C(=O)[C@H](CCCNC(=N)N)NC(=O)[C@@H]2CCCN2C(=O)[C@H](N)Cc2ccccc2)CSSC[C@H](C(=O)NCC(=O)N[C@@H](CC(=O)O)C(=O)N[C@@H](Cc2ccc(O)cc2)C(=O)N[C@@H](CCC(=O)O)C(=O)N2CCC[C@H]2C(=O)N[C@H](C(=O)N2CCC[C@H]2C(=O)N[C@@H](CCC(=O)O)C(=O)N[C@@H](CCC(=O)O)C(=O)N[C@@H](C)C(=O)N[C@@H](CC2CCCCC2)C(=O)N[C@H](CCC(=O)O)C(=O)O)[C@@H](C)CC)NC(=O)[C@@H]2CCCN2C1=O` [Peptide 1, fPRPGcGRGD(Nle)PcGDYEPIPEEA(Cha)e] (H-[dF]PRPG[dC]GRGD[Nle]P[dC]GDYEPIPEEA[Cha][dE]-OH; disulfide 6-13) here?
Answer: 17 ± 0.1 min

Question: What about the “pharmacodynamic t1/2, restoration of thrombin activity” value (thrombin; after 1 hr infusion of 5 nmol/kg/min) of the same molecule?
Answer: 26 ± 3.2 min

Question: And the “time after infusion ends at which blood pressure and heart rate return to baseline control values” [1]?
Answer: 2 h

Question: What about the “pharmacodynamic t1/2, restoration of platelet activity” value (dog platelets) of the same molecule?
Answer: 12.8 ± 1.1 min

Question: What about the IC50 (human platelets [2]; 3 h) of the same molecule?
Answer: 11.4 µM

Question: What about the IC50 [3] of the same molecule?
Answer: 2.9 nM

Question: And the IC50 [4]?
Answer: 42.5 nM

Question: Which IC50 (human platelets [2]; 3 h) does the source give for `CC[C@H](C)[C@H](NC(=O)[C@@H]1CCCN1C(=O)[C@H](CCC(=O)O)NC(=O)[C@H](Cc1ccc(O)cc1)NC(=O)[C@H](CC(=O)O)NC(=O)CNC(=O)[C@H]1CSSC[C@@H](NC(=O)CNC(=O)[C@@H]2CCCN2C(=O)[C@H](CCCNC(=N)N)NC(=O)[C@@H]2CCCN2C(=O)[C@H](N)Cc2ccccc2)C(=O)NCC(=O)N[C@@H](CCCNC(=N)N)C(=O)NCC(=O)N[C@@H](CC(=O)O)C(=O)N[C@@H](Cc2ccccc2)C(=O)N2CCC[C@H]2C(=O)N1)C(=O)N1CCC[C@H]1C(=O)N[C@@H](CCC(=O)O)C(=O)N[C@@H](CCC(=O)O)C(=O)N[C@@H](C)C(=O)N[C@@H](CC1CCCCC1)C(=O)N[C@H](CCC(=O)O)C(=O)O` [Peptide 2, fPRPGcGRGDFPcGDYEPIPEEA(Cha)e] (H-[dF]PRPG[dC]GRGDFP[dC]GDYEPIPEEA[Cha][dE]-OH; disulfide 6-13) here?
Answer: ~19 µM

Question: What about the IC50 (human platelets [5]; 3 h) of the same molecule?
Answer: 60 ± 26 nM

Question: For “fPRPGcvRGD(Nle)PcGDYEPIPEEA(Cha)e ([dF]PRPG[dC][dV]RGD[Nle]P[dC]GDYEPIPEEA[Cha][dE]; disulfide 6-13 (inferred)) [Peptide 11]”, which “Relative activity vs Peptide 1: Coagulation aPTT” value (human plasma; ratio to Peptide 1 (ID2 27.9 nM), 1 = as active as Peptide 1) is on record?
Answer: 0.37

Question: And the “Relative activity vs Peptide 1: Aggregation Thrombin” value (human platelets [5]; ratio to Peptide 1 (IC50 5.8 nM), 1 = as active as Peptide 1)?
Answer: 0.13

Question: What about the “Relative activity vs Peptide 1: Coagulation Thrombin Time” value (bovine thrombin; ratio to Peptide 1 (ID2 15 nM), 1 = as active as Peptide 1) of the same molecule?
Answer: 0.86

Question: Which results are given for “fPRPGCGRGD(Nle)PCGDYEPIPEEAYD [Peptide 4, analog of Peptide 1 which contains only natural L-amino acids; not of this invention, reference compound]”?
Answer: inhibition of ADP-induced platelet aggregation (in words) (human platelets [2]; human platelets): approximately equivalent to Peptide 1; IC50 (human platelets [2]; read-out: IC50 inhibition of platelet aggregation, ADP, human PRP, ADP-induced): 35.9 ± 0.5 µM; anticoagulant activity (in words) (human plasma; aPTT and thrombin time): less anticoagulant activity than Peptide 2; ID2 aPTT (human plasma; concentration doubling clotting time): 115 ± 24 nM; fold less active than Peptide 1, thrombin-induced platelet aggregation (human platelets [5]; human platelets): approximately 1,000 fold; IC50 (human platelets [5]; read-out: IC50 Thrombin, human PRP, thrombin-induced): 408 ± 180 nM; ID2 Thrombin Time (bovine thrombin; human plasma, concentration doubling clotting time): 14 ± 3 nM

Question: Which IC50 (human platelets [2]; 3 h) does the source give for `CN[C@H](Cc1ccccc1)C(=O)N1CCC[C@H]1C(=O)N[C@@H](CCCNC(=N)N)C(=O)O` [Peptide 2d, (CH3)fPR, reference compound] here?
Answer: > 1000 µM

Question: And the IC50 (human platelets [5]; 3 h)?
Answer: 200 nM
